# Earlier results in patent US9862652B2, “Microencapsulated nitrification inhibitor composition” (DOW AGROSCIENCES LLC, priority 2014, dated 2018).
smiles,measurement,setting,value
"Clc1cccc(C(Cl)(Cl)Cl)n1 [nitrapyrin, 2-chloro-6-(trichloromethyl)pyridine]",nitrapyrin dissolved by Hallcomid M-8-10,ambient temperature,about 50 weight percent
same,nitrapyrin dissolved by Aromatic 100,ambient temperature (24° C.),about 51 weight percent
same,nitrapyrin dissolved by cyclohexanone,ambient temperature (24° C.),about 60 wt %
same,nitrapyrin dissolved by Aromatic 150,−10° C.,about 29 weight percent
